Values quoted from earlier work as cited in patent US12527751B2, “Oral thin film with high active agent loading” (LTS LOHMANN THERAPIE-SYSTEME AG, priority 2017, dated 2026).

Details: compared with (R) ketamine

CNC1(c2ccccc2Cl)CCCCC1=O (racemic) [(S) ketamine, (S)-(±)-2-(2-chlorophenyl)-2-(methylamino)cyclohexan-1-one]
Analgesic and anaesthetic potency relative to the (R) form: approximately three times higher
